In the NIST ThermoML archive (doi:10.1016/j.jct.2013.09.043):

Assay: xn = mol fraction of the nth substance listed
Details: 101 kPa, Liquid; for viscosity: Capillary tube (Ostwald / Ubbelohde) method; for mass density: Vibrating tube method

NC=O [formamide] + CCC(C)O
Details	mass density, 298.15 K [kg/m3]	mass density, 303.15 K [kg/m3]	mass density, 308.15 K [kg/m3]	mass density, 313.15 K [kg/m3]	viscosity, 298.15 K [mPa·s]	viscosity, 303.15 K [mPa·s]	viscosity, 308.15 K [mPa·s]	viscosity, 313.15 K [mPa·s]
x1 = 0.0871	815.72	811.44	807.59	802.69	3.039	2.541	2.137	1.81
x1 = 0.1597	827.26	822.99	819.07	814.17	3.048	2.561	2.158	1.836
x1 = 0.2462	842.51	838.24	834.28	829.39	3.074	2.601	2.206	1.893
x1 = 0.3993	874.46	870.19	866.14	861.25	3.178	2.729	2.337	2.037
x1 = 0.4397	884.15	879.88	875.81	870.92	3.207	2.763	2.372	2.078
x1 = 0.5567	916.06	911.78	907.68	902.82	3.279	2.855	2.477	2.195
x1 = 0.6516	947.04	942.76	938.6	933.86	3.318	2.911	2.54	2.272
x1 = 0.7376	980.23	975.94	971.72	967.08	3.336	2.945	2.582	2.324
x1 = 0.8512	1033.92	1029.63	1025.39	1020.93	3.34	2.973	2.617	2.371
x1 = 0.9309	1080.54	1076.36	1072.19	1067.81	3.329	2.98	2.631	2.398
x1 = 1	1129	1125.1	1120.98	1116.85	3.305	2.975	2.64	2.42

CCCCC(C)O (configuration not stated) [2-hexanol] + NC=O
Details	mass density, 298.15 K [kg/m3]	mass density, 303.15 K [kg/m3]	mass density, 308.15 K [kg/m3]	mass density, 313.15 K [kg/m3]	viscosity, 298.15 K [mPa·s]	viscosity, 303.15 K [mPa·s]	viscosity, 308.15 K [mPa·s]	viscosity, 313.15 K [mPa·s]
x2 = 0	810.14	806.13	802.06	797.96	4.101	3.411	2.819	2.219
x2 = 0.0818	818.06	814.05	809.79	805.72	4.008	3.334	2.753	2.171
x2 = 0.1638	827.12	823.03	818.79	814.58	3.918	3.276	2.711	2.16
x2 = 0.2392	836.66	832.51	828.24	823.99	3.85	3.23	2.69	2.169
x2 = 0.3529	853.7	849.5	845.26	841.01	3.778	3.176	2.679	2.199
x2 = 0.4439	870.39	866.2	861.95	857.71	3.744	3.187	2.686	2.235
x2 = 0.5613	897.25	893.04	888.76	884.48	3.695	3.185	2.71	2.3
x2 = 0.6496	922.95	918.63	914.3	909.96	3.647	3.169	2.724	2.35
x2 = 0.743	957.42	953.01	948.59	944.27	3.582	3.144	2.726	2.392
x2 = 0.8502	1010.56	1006.13	1001.67	997.41	3.479	3.078	2.695	2.406
x2 = 0.9398	1072.59	1068.37	1063.89	1059.71	3.378	3.021	2.662	2.413

CCCC(C)O (configuration not stated) [pentan-2-ol] + NC=O
Details	mass density, 298.15 K [kg/m3]	mass density, 303.15 K [kg/m3]	mass density, 308.15 K [kg/m3]	mass density, 313.15 K [kg/m3]	viscosity, 298.15 K [mPa·s]	viscosity, 303.15 K [mPa·s]	viscosity, 308.15 K [mPa·s]	viscosity, 313.15 K [mPa·s]
x2 = 0	805.05	800.88	796.89	792.62	3.423	2.834	2.348	1.979
x2 = 0.0823	814.65	810.45	806.51	802.09	3.386	2.811	2.328	1.959
x2 = 0.1639	825.39	821.13	817.19	812.73	3.363	2.801	2.329	1.973
x2 = 0.2393	836.58	832.27	828.29	823.79	3.353	2.811	2.348	2.004
x2 = 0.3541	856.48	852.09	848.01	843.52	3.379	2.864	2.409	2.075
x2 = 0.4444	875.19	870.77	866.59	862.13	3.402	2.911	2.468	2.144
x2 = 0.5612	904.57	900.13	895.87	891.4	3.422	2.964	2.544	2.237
x2 = 0.6497	932.05	927.6	923.33	918.86	3.431	2.989	2.587	2.298
x2 = 0.7431	967.72	963.24	959	954.54	3.42	3.003	2.615	2.343
x2 = 0.8502	1020.4	1016.03	1011.79	1007.32	3.384	3.001	2.628	2.38
x2 = 0.9398	1079.03	1074.66	1070.45	1066.08	3.341	2.988	2.635	2.403

NC=O [formamide] + CC(C)O
Details	mass density, 298.15 K [kg/m3]	mass density, 303.15 K [kg/m3]	mass density, 308.15 K [kg/m3]	mass density, 313.15 K [kg/m3]	viscosity, 298.15 K [mPa·s]	viscosity, 303.15 K [mPa·s]	viscosity, 308.15 K [mPa·s]	viscosity, 313.15 K [mPa·s]
x1 = 0.0831	797.37	793.08	788.56	783.84	2.167	1.867	1.623	1.399
x1 = 0.1563	813.03	808.66	803.98	799.2	2.254	1.948	1.688	1.464
x1 = 0.2377	831.8	827.33	822.51	817.62	2.382	2.064	1.791	1.567
x1 = 0.3518	860.85	856.24	851.26	846.25	2.585	2.259	1.974	1.745
x1 = 0.4403	885.89	881.14	876.01	871.03	2.739	2.409	2.115	1.884
x1 = 0.5371	916.34	911.48	906.38	901.3	2.888	2.556	2.256	2.026
x1 = 0.6352	950.91	946.08	940.93	935.92	3.015	2.684	2.371	2.144
x1 = 0.7388	992.47	987.75	982.64	977.69	3.127	2.789	2.464	2.233
x1 = 0.8497	1043.91	1039.54	1034.66	1029.87	3.218	2.878	2.541	2.312
x1 = 0.94	1092.69	1088.45	1083.96	1079.51	3.277	2.939	2.601	2.377
x1 = 1	1129	1125.1	1120.98	1116.85	3.305	2.975	2.64	2.42
